Values of other authors, collected in patent US8073633B2 (The Invention Science Fund I, LLC, priority 2008, dated 2011).

What was measured:
[1] = coadministered itraconazole relative to placebo
[2] = given with grapefruit juice as compared to water
[3] = in vivo

Row | Compound | change of area under the serum concentration-time curve [AUC (0-infinity)] [1] | change of peak serum concentration (Cmax) [1] | percentage change in Cmax values [2] | innate oral bioavailability [3] | other results
1 | CCC(C)(C)C(=O)O[C@H]1C[C@@H](C)C=C2C=C[C@H](C)[C@H](CC[C@@H](O)C[C@@H](O)CC(=O)O)[C@H]21 [simvastatin acid] | at least tenfold | at least tenfold | – | – | –
2 | CCOC(=O)C1=C(COCCN)NC(C)=C(C(=O)OC)C1c1ccccc1Cl (stereo not drawn) [amlodipine] | – | – | 115% | very high | –
3 | COC(=O)C1=C(C)NC(C)=C(C(=O)OCC(C)C)C1c1ccccc1[N+](=O)[O-] (stereo not drawn) [nisoldipine] | – | – | 409% | very low | –
4 | O=P1(N(CCCl)CCCl)NCCCO1 (stereo not drawn) [cyclophosphamide] | – | – | – | – | relative risk for ovarian failure (lupus nephritis patients homozygous or heterozygous for CYP2C19*2, pulse cyclophosphamide therapy): 0.10; probability of progressing to end stage renal disease (patients homozygous for CYP2B6*5 or CYP2C19*2 (P=0.0005)): higher probability; probability of achieving a complete renal response (patients homozygous for CYP2B6*5 or CYP2C19*2 (P=0.051)): lower probability
5 | CC[C@H](C)C(=O)O[C@H]1C[C@H](O)C=C2C=C[C@H](C)[C@H](CC[C@@H](O)C[C@@H](O)CC(=O)O)[C@H]21 [pravastatin] | slightly increased | slightly increased | – | – | plasma half-life [1]: not altered
